Biological target: T1, IGF-1R (Homo sapiens, UniProt P08069)
T1 construct: expressed in transfected cells; host or cells: Hek293 (Hek293-IGF1R)
Experiment: Cellular IGF-1R assay: capture ELISA (MSD) of receptor phosphorylation in Hek293 cells
Type: cell-based
Details: Hek293-IGF1R cells, 1 h pre-incubation, 10 min IGF stimulation, pIGF1R capture ELISA
Outline: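 IC50 from 4-parameter fit of IGF1R phosphorylation, normalised to IGF-stimulated and unstimulated controls, measured by MSD capture ELISA on lysates. Hek293-IGF1R cells in starvation medium got compound 1 h (top 10 μM, 3-fold steps, 0.1% DMSO) before a 10 min pulse of 1.0 ng/μL IGF.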

T1 sequence (P08069 31-1367): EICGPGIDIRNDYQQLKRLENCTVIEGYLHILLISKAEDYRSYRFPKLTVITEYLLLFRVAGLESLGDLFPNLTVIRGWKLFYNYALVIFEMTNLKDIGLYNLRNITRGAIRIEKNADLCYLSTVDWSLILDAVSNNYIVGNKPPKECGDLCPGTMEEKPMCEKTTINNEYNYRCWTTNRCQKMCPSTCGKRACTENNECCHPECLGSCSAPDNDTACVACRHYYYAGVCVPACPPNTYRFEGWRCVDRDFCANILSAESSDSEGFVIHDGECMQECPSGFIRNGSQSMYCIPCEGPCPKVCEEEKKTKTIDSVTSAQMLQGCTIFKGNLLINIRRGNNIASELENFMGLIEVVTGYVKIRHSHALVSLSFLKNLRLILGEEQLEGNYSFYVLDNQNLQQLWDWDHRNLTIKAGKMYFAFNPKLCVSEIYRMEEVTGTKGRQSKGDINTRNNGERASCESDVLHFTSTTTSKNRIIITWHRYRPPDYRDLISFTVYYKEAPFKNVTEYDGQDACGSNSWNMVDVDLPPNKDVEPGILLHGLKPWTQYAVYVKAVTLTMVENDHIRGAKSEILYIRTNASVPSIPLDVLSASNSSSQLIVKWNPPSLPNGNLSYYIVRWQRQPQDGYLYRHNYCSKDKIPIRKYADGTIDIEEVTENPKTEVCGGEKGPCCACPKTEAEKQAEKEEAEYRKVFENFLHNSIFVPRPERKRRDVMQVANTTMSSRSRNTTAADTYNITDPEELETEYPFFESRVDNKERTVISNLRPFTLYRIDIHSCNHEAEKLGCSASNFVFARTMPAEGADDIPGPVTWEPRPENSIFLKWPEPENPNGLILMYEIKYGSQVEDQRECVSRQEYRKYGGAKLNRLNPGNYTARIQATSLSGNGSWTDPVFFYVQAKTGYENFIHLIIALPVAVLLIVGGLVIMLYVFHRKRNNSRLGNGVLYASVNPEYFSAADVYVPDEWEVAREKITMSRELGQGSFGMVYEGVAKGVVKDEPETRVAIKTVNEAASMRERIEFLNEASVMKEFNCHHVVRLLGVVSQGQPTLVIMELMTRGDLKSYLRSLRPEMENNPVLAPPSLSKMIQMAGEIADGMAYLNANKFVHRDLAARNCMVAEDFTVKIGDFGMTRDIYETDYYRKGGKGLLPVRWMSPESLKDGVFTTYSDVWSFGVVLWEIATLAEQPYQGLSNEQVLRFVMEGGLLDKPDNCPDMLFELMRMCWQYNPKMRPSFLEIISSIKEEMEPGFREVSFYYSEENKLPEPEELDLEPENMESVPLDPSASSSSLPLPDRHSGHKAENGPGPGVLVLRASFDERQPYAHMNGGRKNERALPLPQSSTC

SMILES	IC50 [nM]
Nc1ncnc2c1c(-c1cccc(OCC34CCC(CC3)O4)c1)cn2[C@H]1C[C@@H](CN2C3CCC2CC(O)C3)C1 (stereo partly drawn) [Example 185, 8-(cis-3-{4-Amino-5-[3-(7-oxa-bicyclo[2.2.1]hept-1-ylmethoxy)-phenyl]-pyrrolo[2,3-d]pyrimidin-7-yl}-cyclobutylmethyl)-8-aza-bicyclo[3.2.1]octan-(3-exo)-ol]	6
Nc1nccn2c1c(-c1cccc(OCC34CCC(CC3)O4)c1)nc2[C@H]1C[C@@H](N2CCC(O)CC2)C1 [Example 187]	128
NC(=O)[C@@H]1CCCN1[C@H]1C[C@@H](n2cc(-c3cccc(OCC45CCC(CC4)O5)c3)c3c(N)ncnc32)C1 [Example 189, (S)-1-(cis-3-{4-Amino-5-[3-(7-oxa-bicyclo[2.2.1]hept-1-ylmethoxy)-phenyl]-pyrrolo[2,3-d]pyrimidin-7-yl}-cyclobutyl)-pyrrolidine-2-carboxylic acid amide]	132
NC(=O)[C@@H]1CCCN1[C@H]1C[C@H](n2cc(-c3cccc(OCC45CCC(CC4)O5)c3)c3c(N)ncnc32)C1 [Example 190, (S)-1-(trans-3-{4-Amino-5-[3-(7-oxa-bicyclo[2.2.1]hept-1-ylmethoxy)-phenyl]-pyrrolo[2,3-d]pyrimidin-7-yl}-cyclobutyl)-pyrrolidine-2-carboxylic acid amide]	435
Nc1ncnc2c1c(-c1cccc(OCC34CCC(CC3)O4)c1)cn2C1CC(O)(CN2CCC(O)CC2)C1 (stereo not drawn) [Example 192, 1-(3-{4-Amino-5-[3-(7-oxa-bicyclo[2.2.1]hept-1-ylmethoxy)-phenyl]-pyrrolo[2,3-d]pyrimidin-7-yl}-1-hydroxy-cyclobutylmethyl)-piperidin-4-ol]	63
Nc1ncnc2c1c(-c1cccc(OCC34CCC(CC3)O4)c1)cn2[C@H]1C[C@@]2(COC(=O)O2)C1 [Example 197, (E)-2-{4-Amino-5-[3-(7-oxa-bicyclo[2.2.1]hept-1-ylmethoxy)-phenyl]-pyrrolo[2,3d]pyrimidin-7-yl}-5,7-dioxa-spiro[3.4]octan-6-one]	99
NC(=O)[C@@H]1CCCN1C[C@]1(O)C[C@@H](n2cc(-c3cccc(OCC45CCC(CC4)O5)c3)c3c(N)ncnc32)C1 [Example 198, (S)-(Z)-1-(3-(4-Amino-5-[3-(7-oxa-bicyclo[2.2.1]hept-1-ylmethoxy)-phenyl]-pyrrolo[2,3-d]pyrimidin-7-yl}-1-hydroxy-cyclobutylmethyl)-pyrrolidine-2-carboxylic acid amide]	33
Nc1ncnc2c1c(-c1cccc(OCC34CCC(CC3)O4)c1)cn2[C@H]1C[C@](O)(CN2CC(O)C2)C1 [Example 199, (Z)-1-(3-{4-Amino-5-[3-(7-oxa-bicyclo[2.2.1]hept-1-ylmethoxy)-phenyl]-pyrrolo[2,3-d]pyrimidin-7-yl}-1-hydroxy-cyclobutylmethyl)-azetidin-3-ol]	201
NC[C@]1(O)C[C@H](n2cc(-c3cccc(OCC45CCC(CC4)O5)c3)c3c(N)ncnc32)C1 [Example 201]	478
Nc1ncnc2c1c(-c1cccc(OCC34CCC(CC3)O4)c1)cn2[C@H]1C[C@@](O)(CN2CCS(=O)(=O)CC2)C1 [Example 205, (E)-3-{4-Amino-5-[3-(7-oxa-bicyclo[2.2.1]hept-1-ylmethoxy)-phenyl]-pyrrolo[2,3-d]pyrimidin-7-yl}-1-(1,1-dioxo-1lambda*6*-thiomorpholin-4-ylmethyl)-cyclobutanol]	14
NC[C@]1(O)C[C@@H](n2cc(-c3cccc(OCC45CCC(CC4)O5)c3)c3c(N)ncnc32)C1 [Example 208, (Z)-1-Aminomethyl-3-{4-amino-5-[3-(7-oxa-bicyclo[2.2.1]hept-1-ylmethoxy)-phenyl]-pyrrolo[2,3-d]pyrimidin-7-yl}-cyclobutanol]	175
NC(=O)[C@H]1CCCN1CC1(O)CC(n2cc(-c3cccc(OCC45CCC(CC4)O5)c3)c3c(N)ncnc32)C1 (stereo partly drawn) [Example 212, (R)-(E)-1-(3-{4-Amino-5-[3-(7-oxa-bicyclo[2.2.1]hept-1-ylmethoxy)-phenyl]-pyrrolo[2,3-d]pyrimidin-7-yl}-1-hydroxy-cyclobutylmethyl)-pyrrolidine-2-carboxylic acid amide]	312
Nc1ncnc2c1c(-c1cccc(OCC34CCC(CC3)O4)c1)cn2C1CC(CN2CC[C@@H](O)C2)C1 (stereo partly drawn) [Example 213, (R)-1-(3-{4-Amino-5-[3-(7-oxa-bicyclo[2.2.1]hept-1-ylmethoxy)-phenyl]-pyrrolo[2,3-d]pyrimidin-7-yl}-cyclobutylmethyl)-pyrrolidin-3-ol]	15
Nc1ncnc2c1c(-c1cccc(OCC34CCC(CC3)O4)c1)cn2[C@H]1C[C@@H](CN2CC[C@@H](O)C2)C1 [Example 214, (R)-1-(cis-3-{4-Amino-5-[3-(7-oxa-bicyclo[2.2.1]hept-1-ylmethoxy)-phenyl]-pyrrolo[2,3-d]pyrimidin-7-yl}-cyclobutylmethyl)-pyrrolidin-3-ol]	18
Nc1ncnc2c1c(-c1cccc(OCC34CCC(CC3)O4)c1)cn2[C@@H]1CCN(C2CCS(=O)(=O)CC2)C1 [Example 215, 7-[(R)-1-(1,1-dioxo-hexahydro-thiopyran-4-yl)-pyrrolidin-3-yl]-5-[3-(7-oxa-bicyclo[2.2.1]hept-1-ylmethoxy)-phenyl]-7H-pyrrolo[2,3-d]pyrimidin-4-ylamine]	332
CN1CCC(N2CC[C@@H](n3cc(-c4cccc(OCC56CCC(CC5)O6)c4)c4c(N)ncnc43)C2)CC1 [Example 216, 7-[(R)-1-(1-Methyl-piperidin-4-yl)-pyrrolidin-3-yl]-5-[3-(7-oxa-bicyclo[2.2.1]hept-1-ylmethoxy)-phenyl]-7H-pyrrolo[2,3-d]pyrimidin-4-ylannine]	80
Cn1nnnc1C[C@]1(O)C[C@H](n2cc(-c3cccc(OCC45CCC(CC4)O5)c3)c3c(N)ncnc32)C1 [Example 217, (E)-3-{4-Amino-5-[3-(7-oxa-bicyclo[2.2.1]hept-1-ylmethoxy)-phenyl]-pyrrolo[2,3-d]pyrimidin-7-yl}-1-(1-methyl-1H-tetrazol-5-ylmethyl)-cyclobutanol]	598
COC(=O)NC[C@]1(O)C[C@H](n2cc(-c3cccc(OCC45CCC(CC4)O5)c3)c3c(N)ncnc32)C1 [Example 218, (E)-(3-{4-Amino-5-[3-(7-oxa-bicyclo[2.2.1]hept-1-ylmethoxy)-phenyl]-pyrrolo[2,3-d]pyrimidin-7-yl}-1-hydroxy-cyclobutylmethyl)-carbamic acid methyl ester]	404
CC1(O)CC(n2cc(-c3cccc(OCC45CCC(CC4)O5)c3)c3c(N)ncnc32)C1 (stereo not drawn) [Example 219, (E)-3-(4-amino-5-[3-(7-oxa-bicyclo[2.2.1]hept-1-ylmethoxy)-phenyl]-pyrrolo[2,3-d]pyrimidin-7-yl}-1-methyl-cyclobutanol]	579
Nc1ncnc2c1c(-c1cccc(OCC34CCC(CC3)O4)c1)cn2[C@H]1C[C@@]2(CNC(=O)CO2)C1 [Example 220, (E)-2-{4-amino-5-[3-(7-oxa-bicyclo[2.2.1]hept-1-ylmethoxy)-phenyl]-pyrrolo[2,3-d]pyrimidin-7-yl}-5-oxa-8-aza-spiro[3.5]nonan-7-one]	364
Nc1ncnc2c1c(-c1cccc(OCC34CCC(CC3)O4)c1)cn2[C@H]1C[C@H](O)C1 [Example 222, (E)-3-{4-amino-5-[3-(7-oxa-bicyclo[2.2.1]hept-1-ylmethoxy)-phenyl]-pyrrolo[2,3-d]pyrimidin-7-yl}-cyclobutanol]	352
Nc1ncnc2c1c(-c1cccc(OCC34CCC(CC3)O4)c1)cn2C1CN(C2CS(=O)(=O)C2)C1 [Example 224, 7-[1-(1,1-dioxo-thietan-3-yl)-azetidin-3-yl]-5-[3-(7-oxa-bicyclo[2.2.1]hept-1-ylmethoxy)-phenyl]-7H-pyrrolo[2,3-d]pyrimidin-4-ylamine]	518
Nc1ncnc2c1c(-c1cccc(OCC34CCC(CC3)O4)c1)cn2[C@@H]1CCN(C2CS(=O)(=O)C2)C1 [Example 225, 7-[(R)-1-(1,1-dioxo-thietan-3-yl)-pyrrolidin-3-yl]-5-[3-(7-oxa-bicyclo[2.2.1]hept-1-ylmethoxy)-phenyl]-7H-pyrrolo[2,3-d]pyrimidin-4-ylamine]	319
Nc1ncnc2c1c(-c1cccc(OCC34CCC(CC3)O4)c1)cn2C1CC(CN2CC3CC2CS3)C1 [Example 227, 5-[3-(7-Oxa-bicyclo[2.2.1]hept-1-ylmethoxy)-phenyl]-7-{(trans-3-[(1S,4S)-1-(2-thia-5-aza-bicyclo[2.2.1]hept-5-yl)methyl]-cyclobutyl}-7H-pyrrolo[2,3-d]pyrimidin-4-ylamine]	74
Nc1ncnc2c1c(-c1cccc(OC[C@@H]3CCCO3)c1)cn2[C@H]1C[C@@H](N2CC[S+]([O-])CC2)C1 [Example 234, 7-[cis-3-(1-oxo-thiomorpholin-4-yl)-cyclobutyl]-5-{3-[(S)-1-(tetrahydro-furan-2-yl)methoxy]-phenyl}-7H-pyrrolo[2,3-d]pyrimidin-4-ylamine]	309
CN(C)CC1(O)CC(n2cc(-c3cccc(OCC45CCC(CC4)O5)c3)c3c(N)ncnc32)C1 (stereo not drawn) [Example 235, 3-{4-Amino-5-[3-(7-oxa-bicyclo[2.2.1]hept-1-ylmethoxy)-phenyl]-pyrrolo[2,3-d]pyrimidin-7-yl}-1-dimethylaminomethyl-cyclobutanol]	49
Nc1ncnc2c1c(-c1cccc(OC[C@@H]3CCCO3)c1)cn2C1CC2(CNC(=O)O2)C1 (stereo partly drawn) [Example 238, 2-(4-Amino-5-{3-[(S)-1-(tetrahydro-furan-2-yl)methoxy]-phenyl}-pyrrolo[2,3-d]pyrimidin-7-yl)-5-oxa-7-aza-spiro[3.4]octan-6-one]	366

Source: patent US20120165310A1, “ETHER DERIVATIVES OF BICYCLIC HETEROARYLS” (NOVARTIS AG, priority 2009, published 2012)
